According to ChEMBL document CHEMBL3046894, “Synthesis and Herbicidal Activity of Pyrimidinyl Salicylic and Thiosalicylic Acids” (J Pestic Sci, 1996):
Active and inactive are the calls of the source. No cut-off for these calls is given here.

How the values were obtained:
Abutilon theophrasti [1] = experiment: Post-emergence herbicidal activity against Abutilon theophrasti (velvetleaf) assessed as mortality at 6.3 g a.i/10 a applied 11 days after germination as foliar spray; assay type: functional; conditions: 264 h
Gossypium hirsutum [2] = experiment: Post-emergence phytotoxicity against Gossypium hirsutum (cotton) assessed as mortality at 6.3 g a.i/10 a applied 11 days after germination as foliar spray; assay type: organism-based; conditions: in vivo, other, 264 h
Abutilon theophrasti [3] = experiment: Post-emergence herbicidal activity against Abutilon theophrasti (velvetleaf) assessed as mortality at 1.6 g a.i/10 a applied 11 days after germination as foliar spray; assay type: functional; conditions: 264 h
Echinochloa crus-galli [4] = experiment: Post-emergence herbicidal activity against Echinochloa crus-galli (barnyard grass) assessed as mortality at 1.6 g a.i/10 a applied 11 days after germination as foliar spray; assay type: functional; conditions: 264 h
[5] = (§1) Pre-emergence phytotoxicity against Glycine max (soybean) assessed as mortality at 1.6 g a.i/10 a; assay type: organism-based; conditions: in vivo, 1.6 g a.i/10 a, read-out: Activity
[6] = (§2) Pre-emergence phytotoxicity against Glycine max (soybean) assessed as mortality at 6.3 g a.i/10 a; assay type: organism-based; conditions: in vivo, 6.3 g a.i/10 a, read-out: Activity
Abutilon theophrasti [7] = experiment: Pre-emergence herbicidal activity against Abutilon theophrasti (velvetleaf) assessed as mortality at 1.6 g a.i/10 a; assay type: functional
Glycine max [8] = experiment: Post-emergence phytotoxicity against Glycine max (soybean) assessed as mortality at 1.6 g a.i/10 a applied 11 days after germination as foliar spray; assay type: organism-based; conditions: in vivo, other, 264 h
Gossypium hirsutum [9] = experiment: Post-emergence phytotoxicity against Gossypium hirsutum (cotton) assessed as mortality at 1.6 g a.i/10 a applied 11 days after germination as foliar spray; assay type: organism-based; conditions: in vivo, other, 264 h
Zea mays [10] = experiment: Post-emergence phytotoxicity against Zea mays (maize) assessed as mortality at 1.6 g a.i/10 a applied 11 days after germination as foliar spray; assay type: organism-based; conditions: in vivo, other, 264 h
[11] = (§3) Pre-emergence phytotoxicity against Gossypium hirsutum (cotton) assessed as mortality at 6.3 g a.i/10 a; assay type: organism-based; conditions: in vivo, 6.3 g a.i/10 a, read-out: Activity
Glycine max [12] = experiment: Post-emergence phytotoxicity against Glycine max (soybean) assessed as mortality at 6.3 g a.i/10 a applied 11 days after germination as foliar spray; assay type: organism-based; conditions: in vivo, other, 264 h
Zea mays [13] = experiment: Pre-emergence phytotoxicity against Zea mays (maize) assessed as mortality at 1.6 g a.i/10 a; assay type: organism-based; conditions: in vivo, other
Gossypium hirsutum [14] = experiment: Pre-emergence phytotoxicity against Gossypium hirsutum (cotton) assessed as mortality at 1.6 g a.i/10 a; assay type: organism-based; conditions: in vivo, other
Abutilon theophrasti [15] = experiment: Pre-emergence herbicidal activity against Abutilon theophrasti (velvetleaf) assessed as mortality at 6.3 g a.i/10 a; assay type: functional
Zea mays [16] = experiment: Pre-emergence phytotoxicity against Zea mays (maize) assessed as mortality at 6.3 g a.i/10 a; assay type: organism-based; conditions: in vivo, other
Echinochloa crus-galli [17] = experiment: Pre-emergence herbicidal activity against Echinochloa crus-galli (barnyard grass) assessed as mortality at 6.3 g a.i/10 a; assay type: functional
Ipomoea lacunosa [18] = experiment: Pre-emergence herbicidal activity against Ipomoea lacunosa assessed as mortality at 1.6 g a.i/10 a; assay type: functional
Ipomoea lacunosa [19] = experiment: Pre-emergence herbicidal activity against Ipomoea lacunosa assessed as mortality at 6.3 g a.i/10 a; assay type: functional
Amaranthus retroflexus [20] = experiment: Post-emergence herbicidal activity against Amaranthus retroflexus assessed as growth inhibition at 25 g a.i/10 a applied 11 days after germination as foliar spray; assay type: functional, organism-based
Digitaria sanguinalis [21] = experiment: Pre-emergence herbicidal activity against Digitaria sanguinalis (hairy crabgrass) assessed as growth inhibition at 25 g a.i/10 a; assay type: functional, organism-based
Ipomoea lacunosa [22] = experiment: Pre-emergence herbicidal activity against Ipomoea lacunosa assessed as mortality per 10 acre; assay type: functional
Digitaria sanguinalis [23] = experiment: Post-emergence herbicidal activity against Digitaria sanguinalis (hairy crabgrass) assessed as growth inhibition at 25 g a.i/10 a applied 11 days after germination as foliar spray; assay type: functional, organism-based
Echinochloa crus-galli [24] = experiment: Pre-emergence herbicidal activity against Echinochloa crus-galli (barnyard grass) assessed as mortality per 10 acre; assay type: functional
Chenopodium album [25] = experiment: Pre-emergence herbicidal activity against Chenopodium album assessed as growth inhibition at 25 g a.i/10 a; assay type: functional, organism-based
Glycine max [26] = experiment: as §1; assay type: organism-based; conditions: in vivo, other
Glycine max [27] = experiment: as §2; assay type: organism-based; conditions: in vivo, other
Xanthium strumarium [28] = experiment: Pre-emergence herbicidal activity against Xanthium strumarium (cocklebur) assessed as mortality at 1.6 g a.i/10 a; assay type: functional; conditions: Xanthium strumarium, pre-emergence
Xanthium strumarium [29] = experiment: Post-emergence herbicidal activity against Xanthium strumarium (cocklebur) assessed as mortality per 10 acre; assay type: functional
Persicaria nodosa [30] = experiment: Pre-emergence herbicidal activity against Persicaria nodosa assessed as mortality per 10 acre; assay type: functional
Xanthium strumarium [31] = experiment: Pre-emergence herbicidal activity against Xanthium strumarium (cocklebur) assessed as mortality per 10 acre; assay type: functional
Persicaria nodosa [32] = experiment: Pre-emergence herbicidal activity against Persicaria nodosa assessed as growth inhibition at 25 g a.i/10 a; assay type: functional, organism-based
Chenopodium album [33] = experiment: Post-emergence herbicidal activity against Chenopodium album assessed as growth inhibition at 25 g a.i/10 a applied 11 days after germination as foliar spray; assay type: functional, organism-based
Cyperus iria [34] = experiment: Post-emergence herbicidal activity against Cyperus iria assessed as growth inhibition at 25 g a.i/10 a applied 11 days after germination as foliar spray; assay type: functional, organism-based
Echinochloa crus-galli [35] = experiment: Post-emergence herbicidal activity against Echinochloa crus-galli (barnyard grass) assessed as mortality per 10 acre; assay type: functional
Gossypium hirsutum [36] = experiment: Pre-emergence phytotoxicity against Gossypium hirsutum (cotton) assessed as mortality per 10 acre; assay type: organism-based; conditions: in vivo
Ipomoea lacunosa [37] = experiment: Post-emergence herbicidal activity against Ipomoea lacunosa assessed as mortality at 1.6 g a.i/10 a applied 11 days after germination as foliar spray; assay type: functional; conditions: 264 h
Gossypium hirsutum [38] = experiment: Post-emergence phytotoxicity against Gossypium hirsutum (cotton) assessed as mortality per 10 acre; assay type: organism-based; conditions: in vivo
Amaranthus retroflexus [39] = experiment: Post-emergence herbicidal activity against Amaranthus retroflexus assessed as mortality per 10 acre; assay type: functional
Echinochloa crus-galli [40] = experiment: Pre-emergence herbicidal activity against Echinochloa crus-galli (barnyard grass) assessed as growth inhibition at 25 g a.i/10 a; assay type: functional, organism-based
Xanthium strumarium [41] = experiment: Post-emergence herbicidal activity against Xanthium strumarium (cocklebur) assessed as mortality at 1.6 g a.i/10 a applied 11 days after germination as foliar spray; assay type: functional; conditions: 264 h
Cyperus iria [42] = experiment: Pre-emergence herbicidal activity against Cyperus iria assessed as growth inhibition at 25 g a.i/10 a; assay type: functional, organism-based
Persicaria nodosa [43] = experiment: Post-emergence herbicidal activity against Persicaria nodosa assessed as growth inhibition at 25 g a.i/10 a applied 11 days after germination as foliar spray; assay type: functional, organism-based
Gossypium hirsutum [44] = experiment: as §3; assay type: organism-based; conditions: in vivo, other
Echinochloa crus-galli [45] = experiment: Post-emergence herbicidal activity against Echinochloa crus-galli (barnyard grass) assessed as growth inhibition at 25 g a.i/10 a applied 11 days after germination as foliar spray; assay type: functional, organism-based
Amaranthus retroflexus [46] = experiment: Pre-emergence herbicidal activity against Amaranthus retroflexus assessed as growth inhibition at 25 g a.i/10 a; assay type: functional, organism-based
Xanthium strumarium [47] = experiment: Pre-emergence herbicidal activity against Xanthium strumarium (cocklebur) assessed as mortality at 6.3 g a.i/10 a; assay type: functional; conditions: Xanthium strumarium, pre-emergence
Persicaria nodosa [48] = experiment: Post-emergence herbicidal activity against Persicaria nodosa assessed as mortality per 10 acre; assay type: functional
Amaranthus retroflexus [49] = experiment: Pre-emergence herbicidal activity against Amaranthus retroflexus assessed as mortality per 10 acre; assay type: functional
Ipomoea lacunosa [50] = experiment: Post-emergence herbicidal activity against Ipomoea lacunosa assessed as mortality per 10 acre; assay type: functional
[51] = Abutilon theophrasti, pre-emergence
[52] = Ipomoea lacunosa, pre-emergence

Q: What does the source list for `CCOc1cccc(Sc2nc(OC)cc(OC)n2)c1C(=O)O`?
A: mortality at 63 g/ha (Abutilon theophrasti [1]): > 90%; Activity (Gossypium hirsutum [2]): Toxic; mortality at 16 g/ha (Abutilon theophrasti [3]): > 90%; mortality at 16 g/ha (Echinochloa crus-galli [4]): < 5%; mortality [5]: < 50%; mortality [6]: < 50%; Activity (Abutilon theophrasti [7]): <50%; Activity (Glycine max [8]): Toxic; Activity (Gossypium hirsutum [9]): Toxic; Activity (Zea mays [10]): Toxic; mortality [11]: < 50%; Activity (Glycine max [12]): Toxic; Activity (Zea mays [13]): Non-toxic; Activity (Gossypium hirsutum [14]): < 50%; Activity (Abutilon theophrasti [15]): <50%; Activity (Zea mays [16]): Toxic; Activity (Echinochloa crus-galli [17]): >90%; Activity (Ipomoea lacunosa [18]): <50%; Activity (Ipomoea lacunosa [19]): <50%

Q: With `COc1cc(OC)nc(Oc2ccccc2C(=O)O)n1` as the compound, how does the Activity (Gossypium hirsutum [2]) read?
A: Toxic

Q: What about the mortality at 16 g/ha (Abutilon theophrasti [3]) of the same compound?
A: < 5%

Q: And the “growth inhibition (GI)” value (Amaranthus retroflexus [20])?
A: Active

Q: And the “growth inhibition (GI)” value (Digitaria sanguinalis [21])?
A: Active

Q: And the ED90 (Ipomoea lacunosa [22])?
A: >100 gAi

Q: What about the “growth inhibition (GI)” value (Digitaria sanguinalis [23]) of the same compound?
A: Active

Q: What about the ED90 (Echinochloa crus-galli [24]) of the same compound?
A: 12 gAi

Q: What about the “growth inhibition (GI)” value (Chenopodium album [25]) of the same compound?
A: Active

Q: And the Activity (Glycine max [26])?
A: Non-toxic

Q: What about the Activity (Glycine max [27]) of the same compound?
A: Non-toxic

Q: What about the mortality at 16 g/ha (Xanthium strumarium [28]) of the same compound?
A: < 5%

Q: And the mortality at 16 g/ha (Abutilon theophrasti [7]; [51])?
A: < 5%

Q: What about the ED90 (Xanthium strumarium [29]) of the same compound?
A: >100 gAi

Q: What about the Activity (Glycine max [8]) of the same compound?
A: Toxic

Q: What about the Activity (Gossypium hirsutum [9]) of the same compound?
A: Toxic

Q: What about the ED90 (Persicaria nodosa [30]) of the same compound?
A: 12 gAi

Q: And the ED90 (Xanthium strumarium [31])?
A: >100 gAi

Q: What about the “growth inhibition (GI)” value (Persicaria nodosa [32]) of the same compound?
A: inactive

Q: What about the “growth inhibition (GI)” value (Chenopodium album [33]) of the same compound?
A: Active

Q: What about the “growth inhibition (GI)” value (Cyperus iria [34]) of the same compound?
A: Active

Q: What about the ED90 (Echinochloa crus-galli [35]) of the same compound?
A: 50 gAi

Q: What about the ED20 (Gossypium hirsutum [36]) of the same compound?
A: 12 gAi

Q: And the mortality at 16 g/ha (Ipomoea lacunosa [37])?
A: < 5%

Q: What about the ED20 (Gossypium hirsutum [38]) of the same compound?
A: 12 gAi

Q: And the ED90 (Amaranthus retroflexus [39])?
A: 12 gAi

Q: And the Activity (Zea mays [10])?
A: Toxic

Q: What about the “growth inhibition (GI)” value (Echinochloa crus-galli [40]) of the same compound?
A: Active

Q: What about the mortality at 16 g/ha (Xanthium strumarium [41]) of the same compound?
A: < 5%

Q: What about the “growth inhibition (GI)” value (Cyperus iria [42]) of the same compound?
A: Active

Q: And the “growth inhibition (GI)” value (Persicaria nodosa [43])?
A: Active

Q: What about the Activity (Gossypium hirsutum [44]) of the same compound?
A: Non-toxic

Q: What about the Activity (Glycine max [12]) of the same compound?
A: Toxic

Q: What about the “growth inhibition (GI)” value (Echinochloa crus-galli [45]) of the same compound?
A: Active

Q: And the Activity (Zea mays [13])?
A: Non-toxic

Q: What about the Activity (Gossypium hirsutum [14]) of the same compound?
A: Non-toxic

Q: What about the “growth inhibition (GI)” value (Amaranthus retroflexus [46]) of the same compound?
A: Active

Q: And the mortality at 63 g/ha (Abutilon theophrasti [15]; [51])?
A: < 5%

Q: What about the Activity (Zea mays [16]) of the same compound?
A: Toxic

Q: And the mortality at 63 g/ha (Xanthium strumarium [47])?
A: < 5%

Q: And the ED90 (Persicaria nodosa [48])?
A: 12 gAi

Q: And the mortality at 16 g/ha (Ipomoea lacunosa [18]; [52])?
A: < 5%

Q: What about the mortality at 63 g/ha (Ipomoea lacunosa [19]; [52]) of the same compound?
A: < 5%

Q: What about the ED90 (Amaranthus retroflexus [49]) of the same compound?
A: Active

Q: And the ED90 (Ipomoea lacunosa [50])?
A: >100 gAi
